Results published in patent US7373256B2, “Method for the identification of molecules and biomarkers using chemical, biochemical and biological data” (priority 2005, dated 2008).

Experiments:
[1] = system: rats; assay: Study 5: 1H/19F NMR correlation study of urine from rats dosed with 3-fluoroaniline; assay type: in vivo, rat; conditions: 50 mg/kg, negative covariance with 19F δ-128.4 resonance
Experimental: A number of rats were dosed with 3-fluoroaniline (3-FA) at 50 mg/kg. Urine samples were collected over dry ice (i) pre-dose, (ii) after 0-24 hours, and (iii) after 24-48 hours. ^1H NMR and ^1H-decoupled ^19F NMR spectra were collected. The collection of ^1H NMR spectra was treated as a first data set (i.e., a matrix with one row for each ^1H NMR spectrum, and one column for each ^1H NMR chemical shift variable, n x p) and the collection of ^19F-NMR spectra was treated as a second data set (i.e., a matrix with one row for each ^19F NMR spectrum, and one column for each ^19F NMR chemical shift variable, n×q). The correlation matrix and the covariance matrix (each p×q or q×p) were calculated.
This resonance was selected for the correlation study.
As mentioned above, the correlation matrix and the covariance matrix (each p×q or q×p) were calculated. The correlation between the selected variable (^19F δ-128.4) of the first data set and all of the variables of the second data set (i.e., the range of ^1H δ) is given in the column/row of the correlation matrix associated with this variable (i.e., the column/row for ^19F δ-128.4). The covariance between this variable (^19F δ-128.4) and all of the variables of the second data set (i.e., the range of ^1H δ) is given in the column/row of the covariance matrix associated with this variable (i.e., the column/row for ^19F δ-128.4). […]

[2] = system: rats; assay: Study 7: 1H NMR / UPLC-MS correlation study of urine from rats dosed with hydrazine; assay type: in vivo, rat; conditions: hydrazine poisoning
Experimental: A number of rats were dosed with hydrazine. Urine samples were collected. ^1H NMR and mass spectra were recorded for each sample. (Note that the mass spectra were recorded using an UPLC-MS experiment, in which individual mass spectra are recorded as function of elution time, here over a period of six minutes with a water-acetonitrile gradient; however, for the present study, these spectra were “summed” in order to present a single mass spectrum for each sample. This gives, in effect, “virtual direct injection mass spectra.” This is a known approach for improving MS detection in complex mixtures.)
The collection of ^1H NMR spectra was treated as a first data set (i.e., a matrix with one row for each ^1H NMR spectrum, and one column for each ^1H NMR chemical shift variable, n×p) and the collection of mass spectra was treated as a second data set (i.e., a matrix with one row for each mass spectrum, and one column for each m/z variable, n×q). The correlation matrix and the covariance matrix (each p×q or q×p) were calculated. A correlation map illustrating a part of the correlation matrix, as a function of both ^1H chemical shift (from about δ 2 to about δ 4.5) and m/z (from about 100 to about 350), is shown in FIG. 21. The correlation is indicated by colour (blue is negative correlation and red is positive correlation). A “summed” ^1H NMR spectrum is shown alongside the ^1H δ axis for illustration. Similarly, a “summed” mass spectrum is shown alongside the m/z axis for illustration.
A correlation map illustrating another (very small) part of the correlation matrix is shown in FIG. 22, specifically for ^1H chemical shift from about δ 8.8 to about δ 9.3 and m/z from about 80 to about 200. Again, a “summed” ^1H NMR spectrum is shown alongside the ^1H δ axis for illustration. Similarly, a “summed” mass spectrum is shown alongside the m/z axis for illustration. […] As expected, the mass spectrum peak at m/z 138 (for NMNA) is highly correlated with the ^1H NMR peaks at about δ 9.12 about δ 8.84 (also for NMNA). […]

[3] = system: rats; conditions: hydrazine poisoning; stated as well known; cited from earlier work

| effect on endogenous hippurate level in urine [1] | SMILES | change in urinary creatine ([2]; m/z 90, 116) | change in urinary 2-aminoadipate ([2]; m/z 98, 116) | change in urinary hippurate ([2]; m/z 105, 180) | change in N-methylnicotinamide (NMND) [3] | change in N-methylnicotinic acid (NMNA) [3] |
| --- | --- | --- | --- | --- | --- | --- |
| reduces the amount of hippurate | Nc1cccc(F)c1 [3-fluoroaniline] |  |  |  |  |  |
|  | NN [hydrazine] | increased | increased | decreased | increase | decrease |
